The results in this text go back to patent US8722719B2, “Amine compound and use for same” (Kureha Corporation, priority 2010, dated 2014).

pEC50: −log10 of the molar value.

The test system of data set [1] is HIV-1 IIIB infected MT-4 cells. As to the kind of experiment: anti-HIV activity test (MTT viable cell count). The class given is cell-based. The following applies: Human immunodeficiency virus 1, MT4, 120 h, MOI 0.01, 5 days, MTT method, read-out: EC50 (concentration at which cellular damage due to HIV infection is inhibited by 50%). On the procedure:
In Test Example 1, the amine compound according to the present invention was subjected to the anti-HIV activity test. HIV-1 IIIB infected MT-4 cells (3.0×10^4 cells/well, MOI (multiplicity of infection): 0.01) were added to a 96-well microtiter plate together with the test compound (compound 1, A, or B) at a different concentration immediately after infection. After culturing the cells at 37° C. for 5 days using a carbon dioxide incubator, the number of viable cells was measured by the MTT (tetrazolium) method ([…] et al., J. Virol. Method, 20, 309-321, 1988).
(In general: Tetrazolium dyes change colour on reduction, which living cells bring about.)

Data set [2] is described as follows: oral absorption properties.
A short description of data set [3]: hydrolysis in serum (background finding of the inventors). The data set is classed as in vitro ADME. As to conditions: species not stated.

Consider `CCCN(CCC)CCCCN(CCC(=O)OCCN(C)C)Cc1ccc(CN(Cc2ncc[nH]2)Cc2nccn2C)cc1` [Compound 1, 2-dimethylaminoethyl 3-[(4-dipropylaminobutyl)(4-{[(1H-imidazol-2-ylmethyl)(1-methyl-1H-imidazol-2-ylmethyl)amino]methyl}benzyl)amino]propionate], for which the pEC50 in data set [1] was 8.52. In the case of `CCCN(CCC)CCCCN(CCC(=O)O)Cc1ccc(CN(Cc2ncc[nH]2)Cc2nccn2C)cc1` [Compound A, 3-[(4-dipropylaminobutyl)(4-{[(1H-imidazol-2-ylmethyl)(1-methyl-1H-imidazol-2-ylmethyl)amino]methyl}benzyl)amino]propionic acid], the pEC50 in data set [1] was 8.52. Further, in data set [2], the oral absorption properties entry is “poor oral absorption properties”.

For the compound `CCCN(CCC)CCCCN(CCC(=O)OCC)Cc1ccc(CN(Cc2ncc[nH]2)Cc2nccn2C)cc1` [Compound B, ethyl 3-[(4-dipropylaminobutyl)(4-{[(1H-imidazol-2-ylmethyl)(1-methyl-1H-imidazol-2-ylmethyl)amino]methyl}benzyl)amino]propionate], the pEC50 in data set [1] was 8.52. Besides, in data set [3], the hydrolysis in serum entry is given as “hydrolyzed to only a small extent in serum”.
